Results published in ChEMBL document CHEMBL1201862, “PubChem BioAssay data set” (2004).
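Each compound was tested at five concentrations against cells in 96-well plates for 48 hours. GI50: concentration for 50% inhibition of growth.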 Active and inactive are the calls of the source. Cut-off read from the data, not from the text of the source: active = GI50 up to about 1.1 µM and inactive = higher.

Experiments:
Experiment in all cases: NCI tumour cell line growth inhibition, 48 h
SW-620 = system: SW-620
UO-31 = system: UO-31
ACHN = system: ACHN
A498 = system: A498
SNB-78 = system: SNB-78
RPMI-8226 = system: RPMI-8226
RXF 393 = system: RXF 393
786-0 = system: 786-0
HOP-92 = system: HOP-92
TK-10 = system: TK-10
K562 = system: K562
SF-539 = system: SF-539
LOX IMVI = system: LOX IMVI
KM-20L2 = system: KM-20L2
HCT-15 = system: HCT-15
SNB-75 = system: SNB-75
OVCAR-4 = system: OVCAR-4
SK-MEL-5 = system: SK-MEL-5
DLD-1 = system: DLD-1
U-251 = system: U-251
SF-295 = system: SF-295
NCI-H226 = system: NCI-H226
A549 = system: A549
SK-MEL-2 = system: SK-MEL-2
DMS-114 = system: DMS-114
CCRF-CEM = system: CCRF-CEM
IGROV-1 = system: IGROV-1
UACC-257 = system: UACC-257
HCT-116 = system: HCT-116
OVCAR-5 = system: OVCAR-5
HL-60 = system: HL-60
KM12 = system: KM12
NCI-H460 = system: NCI-H460
Malme-3M = system: Malme-3M
SF-268 = system: SF-268
CAKI-1 = system: CAKI-1
EKVX = system: EKVX
HCC 2998 = system: HCC 2998
NCI-H23 = system: NCI-H23
MOLT-4 = system: MOLT-4
SNB-19 = system: SNB-19
HT-29 = system: HT-29
OVCAR-8 = system: OVCAR-8
SR = system: SR
SK-OV-3 = system: SK-OV-3
SN12C = system: SN12C
M14 = system: M14
DMS-273 = system: DMS-273
HOP-18 = system: HOP-18
HOP-62 = system: HOP-62
LXFL 529 = system: LXFL 529
M19-MEL = system: M19-MEL
OVCAR-3 = system: OVCAR-3
SK-MEL-28 = system: SK-MEL-28
COLO 205 = system: COLO 205
UACC-62 = system: UACC-62
NCI-H522 = system: NCI-H522
T47D = system: T47D
MDA-N = system: MDA-N
BT-549 = system: BT-549
NCI/ADR-RES = system: NCI/ADR-RES
DU-145 = system: DU-145
MDA-MB-231 = system: MDA-MB-231
Hs-578T = system: Hs-578T
MDA-MB-435 = system: MDA-MB-435
PC-3 = system: PC-3
MCF7 = system: MCF7

Oc1ccc(Br)cc1/C=N/c1ccc(/N=C/c2cc(Br)ccc2O)cc1
GI50 (SW-620): > 100 µM (inactive) | GI50 (UO-31): > 100 µM (inactive) | GI50 (ACHN): > 100 µM (inactive) | GI50 (A498): > 100 µM (inactive) | GI50 (SNB-78): > 100 µM (inactive) | GI50 (RPMI-8226): > 100 µM (inactive) | GI50 (RXF 393): > 100 µM (inactive) | GI50 (786-0): > 100 µM (inactive) | GI50 (HOP-92): > 100 µM (inactive) | GI50 (TK-10): > 100 µM (inactive) | GI50 (K562): > 100 µM (inactive) | GI50 (SF-539): > 100 µM (inactive) | GI50 (LOX IMVI): > 100 µM (inactive) | GI50 (KM-20L2): > 100 µM (inactive) | GI50 (HCT-15): > 100 µM | GI50 (SNB-75): > 100 µM (inactive) | GI50 (OVCAR-4): > 100 µM (inactive) | GI50 (SK-MEL-5): > 100 µM (inactive) | GI50 (DLD-1): > 100 µM (inactive) | GI50 (U-251): > 100 µM (inactive) | GI50 (SF-295): > 100 µM (inactive) | GI50 (NCI-H226): > 100 µM (inactive) | GI50 (A549): > 100 µM (inactive) | GI50 (SK-MEL-2): > 100 µM (inactive) | GI50 (DMS-114): > 100 µM (inactive) | GI50 (CCRF-CEM): > 100 µM (inactive) | GI50 (IGROV-1): > 100 µM (inactive) | GI50 (UACC-257): > 100 µM (inactive) | GI50 (HCT-116): > 100 µM (inactive) | GI50 (OVCAR-5): > 100 µM (inactive) | GI50 (HL-60): > 100 µM (inactive) | GI50 (KM12): > 100 µM (inactive) | GI50 (NCI-H460): > 100 µM (inactive) | GI50 (Malme-3M): > 100 µM (inactive) | GI50 (SF-268): > 100 µM (inactive) | GI50 (CAKI-1): > 100 µM (inactive) | GI50 (EKVX): > 100 µM (inactive) | GI50 (HCC 2998): > 100 µM (inactive) | GI50 (NCI-H23): > 100 µM (inactive) | GI50 (MOLT-4): > 100 µM (inactive) | GI50 (SNB-19): > 100 µM (inactive) | GI50 (HT-29): > 100 µM (inactive) | GI50 (OVCAR-8): > 100 µM (inactive) | GI50 (SR): > 100 µM (inactive) | GI50 (SK-OV-3): > 100 µM (inactive) | GI50 (SN12C): > 100 µM (inactive) | GI50 (M14): > 100 µM (inactive)

O=C(/C=C/c1ccc(OCC(=O)N2CCN(c3ccccc3)CC2)cc1)c1ccccc1
GI50 (DMS-273): 2.99 µM (inactive) | GI50 (SW-620): 3.13 µM (inactive) | GI50 (UO-31): 15.2 µM (inactive) | GI50 (ACHN): 19.7 µM (inactive) | GI50 (A498): > 56.8 µM (inactive) | GI50 (SNB-78): > 44.5 µM (inactive) | GI50 (RPMI-8226): 3.75 µM (inactive) | GI50 (RXF 393): 7.85 µM (inactive) | GI50 (786-0): 14.6 µM (inactive) | GI50 (HOP-92): 29 µM (inactive) | GI50 (TK-10): 45.7 µM (inactive) | GI50 (HOP-18): > 50 µM (inactive) | GI50 (K562): 3.18 µM (inactive) | GI50 (SF-539): 16.9 µM (inactive) | GI50 (LOX IMVI): 3.68 µM (inactive) | GI50 (KM-20L2): 8.95 µM (inactive) | GI50 (HCT-15): 7.5 µM | GI50 (SNB-75): 17.9 µM (inactive) | GI50 (OVCAR-4): 14.3 µM (inactive) | GI50 (SK-MEL-5): 7.57 µM (inactive) | GI50 (DLD-1): 7.31 µM (inactive) | GI50 (U-251): 7.14 µM (inactive) | GI50 (SF-295): 23.3 µM (inactive) | GI50 (NCI-H226): 16.9 µM (inactive) | GI50 (A549): 44.4 µM (inactive) | GI50 (SK-MEL-2): > 26.5 µM (inactive) | GI50 (CCRF-CEM): 2.84 µM (inactive) | GI50 (IGROV-1): 32.9 µM (inactive) | GI50 (UACC-257): 17.1 µM (inactive) | GI50 (HCT-116): 11.7 µM (inactive) | GI50 (HOP-62): 32.8 µM (inactive) | GI50 (OVCAR-5): 48.8 µM (inactive) | GI50 (LXFL 529): 19.9 µM (inactive) | GI50 (HL-60): 4.95 µM (inactive) | GI50 (M19-MEL): 11.3 µM (inactive) | GI50 (KM12): 4.52 µM (inactive) | GI50 (NCI-H460): > 46.1 µM (inactive) | GI50 (Malme-3M): 15 µM (inactive) | GI50 (SF-268): 26.7 µM (inactive) | GI50 (CAKI-1): 93.3 µM (inactive) | GI50 (EKVX): 34.7 µM (inactive) | GI50 (HCC 2998): 45.4 µM (inactive) | GI50 (NCI-H23): 17.8 µM (inactive) | GI50 (MOLT-4): 3.05 µM (inactive) | GI50 (SNB-19): 20.1 µM (inactive) | GI50 (HT-29): 4.33 µM (inactive) | GI50 (OVCAR-3): 13.2 µM (inactive) | GI50 (OVCAR-8): 10.9 µM (inactive) | GI50 (SR): 2.72 µM (inactive) | GI50 (SK-MEL-28): 16 µM (inactive) | GI50 (COLO 205): 26.1 µM (inactive) | GI50 (SK-OV-3): 38.1 µM (inactive) | GI50 (UACC-62): 17.8 µM (inactive) | GI50 (SN12C): 19.7 µM (inactive) | GI50 (M14): 29.8 µM (inactive) | GI50 (NCI-H522): 3.6 µM (inactive)

CC(=O)c1ccc2c(c1)CC1(C2)Cc2ccccc2C1=O (configuration not stated)
GI50 (SW-620): > 100 µM (inactive) | GI50 (UO-31): 42.4 µM (inactive) | GI50 (ACHN): 54 µM (inactive) | GI50 (A498): > 100 µM (inactive) | GI50 (T47D): 25.6 µM (inactive) | GI50 (RPMI-8226): 33.6 µM (inactive) | GI50 (RXF 393): 42.5 µM (inactive) | GI50 (786-0): 77.8 µM (inactive) | GI50 (HOP-92): 22.4 µM (inactive) | GI50 (TK-10): 19.4 µM (inactive) | GI50 (MDA-N): 45.1 µM (inactive) | GI50 (K562): 36.1 µM (inactive) | GI50 (SF-539): > 100 µM (inactive) | GI50 (LOX IMVI): 36.1 µM (inactive) | GI50 (HCT-15): 51.5 µM | GI50 (SNB-75): 34.5 µM (inactive) | GI50 (OVCAR-4): 31.4 µM (inactive) | GI50 (SK-MEL-5): 21.8 µM (inactive) | GI50 (U-251): 67.5 µM (inactive) | GI50 (SF-295): 56 µM (inactive) | GI50 (NCI-H226): 85.3 µM (inactive) | GI50 (A549): 37.8 µM (inactive) | GI50 (SK-MEL-2): 71 µM (inactive) | GI50 (BT-549): 43.4 µM (inactive) | GI50 (CCRF-CEM): 29.5 µM (inactive) | GI50 (IGROV-1): 79.1 µM (inactive) | GI50 (UACC-257): 15.5 µM (inactive) | GI50 (HCT-116): 44.1 µM (inactive) | GI50 (HOP-62): > 100 µM (inactive) | GI50 (OVCAR-5): > 100 µM (inactive) | GI50 (HL-60): 25.1 µM (inactive) | GI50 (NCI/ADR-RES): 16 µM (inactive) | GI50 (KM12): 43.3 µM (inactive) | GI50 (NCI-H460): 62.1 µM (inactive) | GI50 (DU-145): > 100 µM (inactive) | GI50 (Malme-3M): 28.4 µM (inactive) | GI50 (MDA-MB-231): 57.3 µM (inactive) | GI50 (SF-268): 74 µM (inactive) | GI50 (Hs-578T): 39.8 µM (inactive) | GI50 (CAKI-1): 33.1 µM (inactive) | GI50 (EKVX): 24.2 µM (inactive) | GI50 (HCC 2998): 40.6 µM (inactive) | GI50 (NCI-H23): 78.9 µM (inactive) | GI50 (MOLT-4): 29.6 µM (inactive) | GI50 (SNB-19): > 100 µM (inactive) | GI50 (HT-29): 14.6 µM (inactive) | GI50 (OVCAR-3): 50.9 µM (inactive) | GI50 (OVCAR-8): 37.9 µM (inactive) | GI50 (SR): 20.8 µM (inactive) | GI50 (SK-MEL-28): 64.3 µM (inactive) | GI50 (COLO 205): 34 µM (inactive) | GI50 (MDA-MB-435): 34.2 µM (inactive) | GI50 (SK-OV-3): > 100 µM (inactive) | GI50 (UACC-62): 55.6 µM (inactive) | GI50 (PC-3): 35.2 µM (inactive) | GI50 (MCF7): 26.7 µM (inactive) | GI50 (SN12C): 69 µM (inactive) | GI50 (M14): 31 µM (inactive) | GI50 (NCI-H522): 21.5 µM (inactive)
